Measurements published in US4461907A, “Amino-substituted flavans useful as anti-viral agents” (priority 1978, dated 1984).
Where two headings read alike, the source gives them in different places.

Legend:
[1] = test system: rhinoviruses; assay: activity in tests (novel compounds)
[2] = test system: rhinovirus serotype 1B; assay: plaque reduction test; type: cell-based; conditions: Enterovirus
From the text: Plaque suppression is proportional to compound concentration.

[3] = test system: rhinoviruses; assay: in vitro tests in culture
[4] = test system: viral hepatitis; conditions: Lancet;2;1153 (1977); cited from earlier work
[5] = in vivo; conditions: mouse, po
[6] = rhinovirus serotype 1B, plaque reduction test, read-out: ED50 (the source's name)

| EC50 [2, 6] | Compound | further results |
| --- | --- | --- |
| 13 nM | COc1ccc(C2CCc3cc(Cl)ccc3O2)cc1 (stereo not drawn) [4'-methoxyl-6-chloro-, 6-Chloro-4'-methoxy-flavan] | activity in tests [1]: highest activity in tests |
| 68 nM | Fc1ccc(C2CCc3cc(F)ccc3O2)cc1 (stereo not drawn) [4',6-difluoro-, 4'-6-difluoro] | – |
| 15 nM | Cc1ccccc1C1CCc2ccccc2O1 (stereo not drawn) [2'-methyl-, 2'-Methylflavan] | – |
| 64 nM | Clc1ccc(C2CCc3ccccc3O2)c(Cl)c1 (stereo not drawn) [2',4'-dichloro-, 2',4'-Dichloro-flavan] | – |
| 15.5 nM | Cc1ccc2c(c1)OC(c1ccc(Cl)cc1)CC2 (stereo not drawn) [4'-chloro-7-methyl-, 4'-chloro-7-methyl-flavan] | activity in tests [1]: highest activity in tests |
| 29 nM | Fc1ccc(C2CCc3cc(Br)ccc3O2)cc1 (stereo not drawn) [6-bromo-4'-fluoro] | – |
| 290 nM | Cc1cccc(C2CCc3ccccc3O2)c1 (stereo not drawn) [3'-methyl-, 3'-methylflavan] | – |
| 83 nM | Cc1ccc(C2CCc3ccc(Cl)cc3O2)cc1 (stereo not drawn) [4'-methyl-7-chloro-, 7-Chloro-4'-methyl-flavan] | – |
| 21 nM | Clc1ccc2c(c1)CCC(c1ccc(Br)cc1)O2 (stereo not drawn) [4'-bromo-6-chloro, 4'-bromo-6-chloro-flavan] | – |
| 48 nM | Clc1ccc(C2CCc3ccc(Cl)cc3O2)cc1 (stereo not drawn) [4',7-dichloro-, 4',7-Dichloroflavan] | – |
| 8 nM | Brc1ccc(C2CCc3cc(Br)ccc3O2)cc1 (stereo not drawn) [4',6-dibromo-, 4',6-dibromoflavan] | activity in tests [1]: highest activity in tests |
| 265 nM | CN(C)c1ccc(C2CCc3ccccc3O2)cc1 (stereo not drawn) [4'-N,N--dimethylamino-, 4'-(N,N-dimethylamino)flavan] | – |
| 12.5 nM | Cc1ccc(C2CCc3ccccc3O2)cc1 (stereo not drawn) [4'-methyl-, 4'-methylflavan] | activity in tests [1]: highest activity in tests |
| 40 nM | Clc1ccc(C2CCc3ccccc3O2)cc1Cl (stereo not drawn) [3',4'-dichloro-, 3',4'-Dichloro-flavan] | – |
| 52 nM | CCc1ccc2c(c1)CCC(c1ccc(Cl)cc1)O2 (stereo not drawn) [4'-chloro-6-ethyl-, 4'-chloro-6-ethyl-flavan] | – |
| 125 nM | COc1cccc(C2CCc3ccccc3O2)c1 (stereo not drawn) [3'-methoxyl-, 3'-methoxyflavan] | – |
| 36 nM | Brc1ccc(C2CCc3ccccc3O2)cc1 (stereo not drawn) [4'-bromo-, 4'-Bromoflavan] | – |
| – | Clc1ccc(C2CCc3ccccc3O2)cc1 (stereo not drawn) [4'-chloro-, 4'-chloroflavan] | EC50 ([2]; read-out: ED50): 40 nM |
| 48 nM | Clc1cccc(Cl)c1C1CCc2ccccc2O1 (stereo not drawn) [2',6'-dichloro-, 2',6'-Dichloroflavan] | – |
| 70 nM | COc1ccc(C2CCc3ccccc3O2)cc1 (stereo not drawn) [4'-methoxyl-, 4'-methoxyflavan] | – |
| 17 nM | Cc1ccc2c(c1)CCC(c1ccc(Cl)c(Cl)c1)O2 (stereo not drawn) [3',4'-dichloro-6-methyl-, 3',4'-Dichloro-6-methylflavan] | activity in tests [1]: highest activity in tests |
| 60 nM | Oc1ccc(C2CCc3ccccc3O2)cc1 (stereo not drawn) [4'-hydroxy-, 4'-hydroxyflavan] | – |
| 6 nM | N#Cc1ccc2c(c1)CCC(c1ccc(Cl)cc1)O2 (stereo not drawn) [4'-chloro-6-cyano, 6-cyano-4'-chloroflavan] | activity in tests [1]: highest activity in tests |
| 20 nM | Fc1ccc2c(c1)CCC(c1ccccc1)O2 (stereo not drawn) [Example 6-fluoro-, 6-fluoro flavan] | – |
| 58 nM | Ic1ccc2c(c1)CCC(c1ccccc1)O2 (stereo not drawn) [Example 6-iodo-, 6-iodo] | – |
| 46 nM | c1ccc(C2CCc3ccccc3O2)cc1 (stereo not drawn) [flavan, Flavan] | activity against rhinoviruses [3]: quite good activity against rhinoviruses |
| 12.5 nM | COc1ccc2c(c1)CCC(c1ccccc1)O2 (stereo not drawn) [Example 6-methoxyl-, 6-methoxyflavan] | activity in tests [1]: highest activity in tests |
| > 10 nM | N#Cc1ccc(C2CCc3cc(C#N)ccc3O2)cc1 (stereo not drawn) [4',6-cyano, 4',6-dicyanoflavan] | activity in tests [1]: highest activity in tests |

| EC50 [2, 6] | Compound | further results |
| --- | --- | --- |
| 150 nM | Cc1ccc2c(c1)CCC(c1ccccc1)O2 (stereo not drawn) [Example 6-methyl-, 6-methylflavan] | – |
| 50 nM | Clc1ccc2c(c1)CCC(c1ccccc1)O2 (stereo not drawn) [Example 6-chloro-, 6-chloroflavan] | – |
| 270 nM | Clc1cccc(C2CCc3ccccc3O2)c1 (stereo not drawn) [3'-chloro-, 3'-chloroflavan] | – |
| 42 nM | Cc1ccc(C2CCc3cc(C)ccc3O2)cc1 (stereo not drawn) [4',6-dimethyl-, 4',6-Dimethylflavan] | – |
| 2.3 nM | Cc1ccc(C2CCc3cc(Cl)ccc3O2)cc1 (stereo not drawn) [4'-methyl-6-chloro-, 6-Chloro-4'-methyl-flavan] | activity in tests [1]: highest activity in tests |
| 19 nM | Brc1ccc2c(c1)CCC(c1ccccc1)O2 (stereo not drawn) [Example 6-bromo-, 6-bromo flavan] | – |
| 15 nM | Clc1ccc(C2CCc3cc(I)ccc3O2)cc1 (stereo not drawn) [4'-chloro-6-iodo-, 6-iodo-4'-chloroflavan] | activity in tests [1]: highest activity in tests |
| 50 nM | Nc1ccc(C2CCc3ccccc3O2)cc1 (stereo not drawn) [4'-amino-, 4'-aminoflavan] | – |
| 76 nM | Brc1ccc(C2CCc3cc(I)ccc3O2)cc1 (stereo not drawn) [4'-bromo-6-iodo] | – |
| 780 nM | Oc1ccccc1C1CCc2ccccc2O1 (stereo not drawn) [2'-hydroxyl-, 2'-hydroxyflavan] | – |
| 100 nM | COc1ccc(C2CCc3cc(C)ccc3O2)cc1 (stereo not drawn) [4'-methoxyl-6-methyl-, 4'-Methoxy-6-methyl-flavan] | – |
| 13 nM | Fc1ccc2c(c1)CCC(c1ccc(Br)cc1)O2 (stereo not drawn) [4'-bromo-6-fluoro-, 6-fluoro-4'-bromoflavan] | activity in tests [1]: highest activity in tests |
| – | OC1Cc2ccccc2OC1c1ccccc1 (stereo not drawn) [-3-hydroxy flavan] | effect against viral hepatitis [4]: without success |
| – | Clc1ccc(C2CCc3cc(Cl)ccc3O2)cc1 (stereo not drawn) [4',6-dichloro-, 4',6-Dichloroflavan] | concentration at 1 h ([5]; 30 mg/kg): 2 to 4 µM; concentration at 1 h ([5]; 100 mg/kg): 10 µM |
| 1400 nM | FC(F)(F)c1cccc(C2CCc3ccccc3O2)c1 (stereo not drawn) [3'-trifluoromethyl, 3'-trifluoromethyl-flavan] | – |
| 112 nM | Clc1ccccc1C1CCc2ccccc2O1 (stereo not drawn) [2'-chloro-, 2'-chloroflavan] | – |
| 36 nM | CC(C)c1ccc(C2CCc3cc(Cl)ccc3O2)cc1 (stereo not drawn) [6-chloro-4-(1-methylethyl), 6-chloro 4'-isopropylflavan] | – |
| 18 nM | Cc1ccc(C2CCc3cc(Br)ccc3O2)cc1 (stereo not drawn) [6-bromo-4'-methyl-, 6-bromo-4'-methylflavan] | – |
| 17.5 nM | Fc1ccc(C2CCc3ccccc3O2)cc1 (stereo not drawn) [4'-fluoro-, 4'-flouroflavan] | activity in tests [1]: highest activity in tests |
| 70 nM | Clc1ccc2c(c1)OC(c1ccccc1)CC2 (stereo not drawn) [Example 7-chloro-, 7-Chloroflavan] | – |
| 38 nM | N#Cc1ccc2c(c1)CCC(c1ccccc1)O2 (stereo not drawn) [Example 6-cyano-, 6-cyano] | – |
| 43 nM | Ic1ccc(C2CCc3cc(I)ccc3O2)cc1 (stereo not drawn) [4',6-diiodo-, 4',6-diiodo] | – |
| 5 nM | Clc1ccc(C2CCc3cc(Br)ccc3O2)cc1 (stereo not drawn) [6-bromo-4'-chloro-, 6-bromo-4'-chloro-flavan] | – |
| 28 nM | Fc1ccc(C2CCc3cc(I)ccc3O2)cc1 (stereo not drawn) [4'-fluoro-6-iodo, 6-iodo-4'-fluoro] | – |
| 15 nM | Fc1ccc2c(c1)CCC(c1ccc(Cl)cc1)O2 (stereo not drawn) [4'-chloro-6-fluoro-, 6-fluoro-4'-chloroflavan] | activity in tests [1]: highest activity in tests |
| 21 nM | Brc1ccc2c(c1)CCC(c1ccc(I)cc1)O2 (stereo not drawn) [6-bromo-4'-iodo-, 6-bromo-4'-iodo] | – |
| 16 nM | Fc1ccc(C2CCc3cc(Cl)ccc3O2)cc1 (stereo not drawn) [6-chloro-4'-fluoro, 6-chloro-4'-fluoro-flavan] | activity in tests [1]: highest activity in tests |

| Compound | EC50 [2, 6] | further results |
| --- | --- | --- |
| CC(=O)Oc1ccc(C2CCc3ccccc3O2)cc1 (stereo not drawn) [4'-acetoxyl-] | 67 nM | – |
